Results on twelve compounds are retold here after patent US4835157A, “Thieno- and furopyrimidine-2,4-dione piperidine derivatives as serotonin antagonists and alpha adrenergic blocking agents” (Ortho Pharmaceutical Corporation, priority 1988, dated 1989).

For experiment [1], the system named is serotonin-induced platelet aggregation. The experiment is described as follows: Platelet Aggregation Assay (serotonin-induced). It is filed as cell-based. As to conditions: Platelet; human plasma, serotonin 5 μM. As to the method: Platelet Aggegation Assay
Human blood was collected into tubes containing sodium citrate. The plasma was separated by centrifugation and was used as the source of platelets. Serotonin (5 μM) was used as the agonist to induce platelet aggregation. A control aggregation curve (as measured by the decrease in absorbance in transmitted light) was obtained in the presence of serotonin and in the absence of test compound. The test compound was added to an identical sample in a cuvette for one minute before addition of serotonin to yield the experimental curve.

In experiment [2] the target is T1, 5HT2 (Rattus norvegicus, UniProt P14842). Briefly: 5HT2 Blockade in vivo (antagonism of 5HT induced pressor responses). The settings on record: for ED50: rat, iv, read-out: 5-HT-Induced Pressor Response ED50. Also on record: Spontaneously hypertensive rats were anesthetized with sodium pentobarbital; from tissue; host or cells: whole animal: anesthetized spontaneously hypertensive rats (vasculature); species or system spontaneously hypertensive rats. As to the method: Antagonism of 5HT induced pressor responses was used to assess 5HT2 blockade in vivo. Spontaneously hypertensive rats were anesthetized with sodium pentobarbital (50 mg/kg, i.p.). The right carotid artery and vein were cannulated for pressure recording and drug injection, respectively. The trachea was cannulated, the rat placed on a respirator and ventilated with room air at 50-60 breaths/minute. Rats were pretreated with prazosin hydrochloride (1 mg/kg, i.v., blous) and pentolinium tartrate (5 mg/kg, i.v., bolus). After 10 minutes equilibration, the rat was challenged with 5HT (100 μg/kg) which elevates mean arterial pressure (MAP) 60-100 mmHg; non-responsive rats were discarded.
After a baseline had been reestablished, bolus injections of 5HT (100 μg/kg, i.v.) were given and the MAP responses were evaluated both pre- and post-drug administration. 5HT challenges were repeated 10 minutes after each dose of antagonist. Up to three cumulative doses of the antagonist were given to a single animal.

For another experiment, the target named is T2, 5HT1A receptor (Rattus norvegicus, UniProt P19327).
T2 construct: Membrane fragments were prepared from prefrontal cortex; from tissue; host or cells: prefrontal/frontal cortex of female rats (about 150 g), membrane fragments
T2 sequence (P19327 1-422): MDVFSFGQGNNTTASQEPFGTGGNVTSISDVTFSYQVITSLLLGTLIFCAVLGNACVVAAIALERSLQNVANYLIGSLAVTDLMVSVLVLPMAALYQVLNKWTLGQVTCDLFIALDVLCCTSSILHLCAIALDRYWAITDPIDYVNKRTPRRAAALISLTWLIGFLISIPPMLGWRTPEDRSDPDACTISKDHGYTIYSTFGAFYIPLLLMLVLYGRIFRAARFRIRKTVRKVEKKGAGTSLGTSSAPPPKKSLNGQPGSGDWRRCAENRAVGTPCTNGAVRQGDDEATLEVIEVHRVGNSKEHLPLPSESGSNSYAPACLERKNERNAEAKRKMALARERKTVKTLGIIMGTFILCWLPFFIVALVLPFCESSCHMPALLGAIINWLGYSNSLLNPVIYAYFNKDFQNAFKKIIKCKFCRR
Briefly: Brain Serotonin (5HT1A) radioreceptor Assay (3H-8-OH DPAT displacement, rat frontal cortex membranes). It is filed as binding. The settings on record: for inhibition at 1 µM: read-out: Brain 5-HT1 Receptor % displaced (% inhibition); for IC50: rat frontal cortex membranes, pH 7.4, read-out: Brain 5-HT1 Receptor IC50. As to the method: Brain Serotonin (5HT1A) radioreceptor Assay
The text objects of this procedure were rat frontal cortex membranes. Membrane fragments were prepared from prefrontal cortex disected from brains obtained from female rats (≈150 g). The 5HT1A sites were labeled with ^3 H-8-OH dipropylaminotetralin (8-OH-DPAT). Membrane fragments, ^3 H-8-OH DPAT, TRIS buffer (pH 7.4) and unlabeled compound were incubated for 10 minutes at 37° C. and then for 10 minutes at 4° C. Separation of bound from unbound ^3 H-8-OH DPAT was performed by vacuum filtration on a glass fiber disc. The ability of a compound to compete with ^3 H-8-OH DPAT for binding sites is a measure of the affinity of the compound for the 5HT1A receptor. Specific binding was determined by the difference between total counts bound and the counts bound in the presence of […] 5-hydroxytryptamine.

Experiment [3] concerns Serotonin-Induced Smooth Muscle Contractions (rabbit thoracic aorta). Briefly: Inhibition of Serotonin-Induced Smooth Muscle Contractions (isolated thoracic aorta strips). The settings on record: Oryctolagus cuniculus, 10 min, concentration shifting the serotonin dose curve 10x to the right, 10 min preincubation, read-out: 5-HT-Induced Smooth Muscle Contraction DR10. The experiment is classed as cell-based. On the procedure: Inhibition of Serotonin-Induced Smooth Muscle Contractions
The test objects of this Example were canines and rabbits. Rabbits were sacrificed by T-61 injection and the thoracic aorta was removed immediately. The aorta was placed in warmed, oxygenated Krebs-Henseleit buffer. After the tissue was cleaned, a 2-3 mm wide strip was cut helically from each aorta. A strip of approximately 5 cm was suspended in Krebs-Henseleit buffer at 37° C. in a 25 ml tissue bath and the tissues equilibrated at an initial resting tension of 4 g for 90-120 minutes. An initial serotonin dose curve, 0.01-10 μM was then done on each tissue, followed by a 60 minute washout and reequilibration. The test drug was then added for a 10 minute preincubation and another serotonin dose curve was done using 0.01-100 μM.
Results are expressed as DR10 values. This is the concentration of the compound required to shift the serotonin dose curve 10x to the right, i.e., the concentration of antagonist at which the concentration of serotonin required for 50% maximal contraction is increased ten-fold.

Experiment [4] deals with T1, 5HT2. The experiment is described as follows: Brain Serotonin (5-HT2) Radioreceptor Assay (3H-ketanserin displacement, rat frontal cortex membranes). Also on record: dissected from brains obtained from female rats; from tissue; host or cells: frontal cortex of female rats (about 150 g), membrane fragments. As to conditions: 15 min at 37° C. The experiment is classed as binding. As to the method:
Brain Serotonin (5-HT2) Radioreceptor Assay
The test objects of this Example were rat frontal cortex membranes. Mebrane fragments were prepared from the frontal cortex dissected from brains obtained from female rats (≈150 g). […] Compound bound to the receptor site was separated from the remaining unbound compound by vacuum filtration. […] Specific binding was determined by the difference between total counts bound and counts bound in the presence of 10^-6 M methysergide.

The subject of the next experiment is serotonin receptors. Briefly: Inhibition of 5-HTP-Induced Head Twitching. The settings on record: male CD1 mice; for Inhibit. of 5-HTP-Head Twitch (result in words): @ 10 (mg/kg, p.o.); for Inhibit. of 5-HTP-Head Twitch ED50: 5-HTP 160 mg/kg i.v. after one hour. The experiment is classed as in vivo. On the procedure: Inhibition of 5-HTP-Induced Head Twitching
This test detects compounds with antagonistic activity of serotonin receptors in vivo, and is a modified procedure of Corne, Pickering and Warner, Brit. J. Pharmacol. 20, 106 (1963). Groups of male CD1 mice were fasted overnight but allowed water ad libitum. They were deprived of water during the course of the experiment. The mice were weighed and treated orally or parenterally with the test compound in a dose volume of 10 ml/kg. Doses of test substance were calculated based upon the active compound. Substances for oral administration were dissolved or suspended in a 0.5% aqueous methylcellulose (15 centipoises) vehicle containing 4 ml of Tween 80/l.
A dose of 160 mg/kg of L-5-hydroxytryptophan (5-HTP) was administered i.v. in a dose volume of 5 ml/kg after one hour. The test mouse was restrained in a rodent restrainer that allowed the tail to extend out the back. The tail was then placed in tepid (but not scalding) water for approximately 10 seconds to soften the skin and dilate the tail vein. A 1 ml syringe and 25 gauge (5/8 inch) needle was used to administer the 5-HTP solution into one of the lateral tail veins.
A timer was started after dosing with 5-HTP to the first animal of the test group. […] A head twitch involves the head, neck and ears and has the appearance of an exaggerated pinal reflex. The number of head twitches for each individual vehicle-treated mouse were recorded to establish a historical baseline.
The active compounds in the test block the twitch response (the response rated all or none).

Where two headings read alike, the source gives them in different places. Where only a bound is given, the exact number is not on record here.

T1 sequence (P14842 whole entry): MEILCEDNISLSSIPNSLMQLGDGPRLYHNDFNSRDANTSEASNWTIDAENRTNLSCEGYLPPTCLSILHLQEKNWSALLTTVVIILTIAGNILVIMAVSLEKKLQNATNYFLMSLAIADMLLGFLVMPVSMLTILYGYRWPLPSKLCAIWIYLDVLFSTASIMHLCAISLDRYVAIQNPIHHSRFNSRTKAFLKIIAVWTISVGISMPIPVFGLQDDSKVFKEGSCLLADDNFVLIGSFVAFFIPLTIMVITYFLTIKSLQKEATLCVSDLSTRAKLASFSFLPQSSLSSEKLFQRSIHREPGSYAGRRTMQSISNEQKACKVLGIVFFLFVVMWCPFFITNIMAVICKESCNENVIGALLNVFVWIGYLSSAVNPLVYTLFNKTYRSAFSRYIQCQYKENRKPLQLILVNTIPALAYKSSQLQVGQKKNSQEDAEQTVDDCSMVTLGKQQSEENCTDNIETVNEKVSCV

In the case of `CC(C)(C)C(=O)n1c(=O)n(CCN2CCC(=C(c3ccc(F)cc3)c3ccc(F)cc3)CC2)c(=O)c2cscc21` [Example 7, 3-[2-[4-[Bis(4-fluorophenyl)methylene]piperidin-1-yl]ethyl]-1-(2,2-dimethyl-1-oxopropyl)thieno[3,4-d]pyrimidine-2,4-dione], the IC50 in experiment [1] turned out to be 2500 nM; on 5HT2 [4], 0.31 nM. The ED50 on 5HT2 [2] stood at 0.038 mg/kg. Also, the inhibition at 1 µM at 5HT1A receptor (@ 1 μM, 3H-8-OH DPAT) amounted to 3%. In experiment [3], the IC (10-fold shift) was 0.02 µM.

Take `O=C(c1ccccc1)n1c(=O)n(CCN2CCC(=C(c3ccc(F)cc3)c3ccc(F)cc3)CC2)c(=O)c2cscc21` [Example 8]: the ED50 on 5HT2 [2] amounted to 0.038 mg/kg. The “Inhibit. of 5-HTP-Head Twitch (result in words)” value in the experiment on serotonin receptors is recorded as “Inact”. The inhibition at 1 µM on 5HT1A receptor (@ 1 μM, 3H-8-OH DPAT) came to 0%. Besides, the IC (10-fold shift) in experiment [3] is 0.01 µM. This compound also registered an IC50 at 5HT2 [4] of 200 nM.

For the compound `O=C(c1ccc(F)cc1)C1CCN(CCn2c(=O)c3cscc3n(C(=O)c3ccccc3)c2=O)CC1` [Example 12, 1-Benzoyl-3-[2-[4-(4-fluorobenzoyl)piperidin-1-yl]ethyl]thieno[3,4-d]pyrimidine-2,4-dione], the IC50 was found to be 100 nM in experiment [1] and 8.5 nM on 5HT2 [4]. Moreover, at 5HT2 [2] (@ 0.3 (mg/kg), anesthetized SHR, 5HT 100 μg/kg i.v.), the “5-HT-Induced Pressor Response, % attenuation” value was determined as 44%. In addition, the “Inhibit. of 5-HTP-Head Twitch ED50” value in the experiment on serotonin receptors is 1.74 mg/kg, p.o. Further, the inhibition at 1 µM at 5HT1A receptor (@ 1 μM, 3H-8-OH DPAT) came out at 24%.

`CC(C)(C)C(=O)n1c(=O)n(CCN2CCC(C(=O)c3ccc(F)cc3)CC2)c(=O)c2cscc21` [Example 13]: the “Inhibit. of 5-HTP-Head Twitch ED50” value with serotonin receptors is listed as 1.98 mg/kg, p.o. The inhibition at 1 µM at 5HT1A receptor (@ 1 μM, 3H-8-OH DPAT) was determined as 31%. Moreover, in experiment [3], the IC (10-fold shift) was determined as 0.03 µM. Further, on 5HT2 [4], the 50% inhibitory concentration (IC50) turned out to be 15 nM.

Take `CCCCn1c(=O)n(CCN2CCC(C(=O)c3ccc(F)cc3)CC2)c(=O)c2cscc21` [Example 15, 1-Butyl-3-[2-[4-(4-fluorobenzoyl)piperidin-1-yl]ethyl]thieno[3,4-d]pyrimidine-2,4-dione 1/4 Hydrate]: the “Inhibit. of 5-HTP-Head Twitch ED50” value with serotonin receptors is given as 1-10 mg/kg, p.o. Further, at 5HT1A receptor (@ 1 μM, 3H-8-OH DPAT), the inhibition at 1 µM came out at 0%. Moreover, the IC50 on 5HT2 [4] turned out to be 450 nM.

As to `Cc1scc2[nH]c(=O)n(CCN3CCC(C(=O)c4ccc(F)cc4)CC3)c(=O)c12` [Example 16, 3-[2-[4-(4-Fluorobenzoyl)piperidin-1-yl]ethyl]-5-methylthieno[3,4-d]pyrimidine-2,4-dione], the half-inhibitory concentration (IC50) was determined as 380 nM in experiment [1] and 7 nM on 5HT2 [4]. At 5HT2 [2], the median effective dose (ED50) was found to be 0.119 mg/kg. For the same compound, the inhibition at 1 µM at 5HT1A receptor (@ 1 μM, 3H-8-OH DPAT) was determined as 2%. In addition, the IC (10-fold shift) in experiment [3] came out at 0.019 µM.

In the case of `Cc1scc2[nH]c(=O)n(CCN3CCC(=C(c4ccc(F)cc4)c4ccc(F)cc4)CC3)c(=O)c12` [Example 17], the “Inhibit. of 5-HTP-Head Twitch (result in words)” value with serotonin receptors is given as “Inact”. Besides, the inhibition at 1 µM at 5HT1A receptor (@ 1 μM, 3H-8-OH DPAT) amounted to 0%. Moreover, at 5HT2 [4], the 50% inhibitory concentration (IC50) was determined as 32 nM.

As for `CCCCn1c(=O)n(CCN2CCC(C(=O)c3ccc(F)cc3)CC2)c(=O)c2ccsc21` [Example 18, 1-Butyl-3-[2-[4-(4-fluorobenzoyl)piperidin-1-yl]ethyl]thieno[2,3-d]pyrimidine-2,4-dione], the “Inhibit. of 5-HTP-Head Twitch (result in words)” value in the experiment on serotonin receptors is reported as “Inact”. The inhibition at 1 µM on 5HT1A receptor (@ 1 μM, 3H-8-OH DPAT) came to 17%. At 5HT2 [4], this compound yielded a half-inhibitory concentration (IC50) of 23 nM.

For the compound `O=C(c1ccc(F)cc1)C1CCN(CCCCn2c(=O)[nH]c3cscc3c2=O)CC1` [Example 19, 3-[4-[4-(4-Fluorobenzoyl)piperidin-1-yl]butyl]thieno[3,4-d]pyrimidine-2,4-dione], the “Inhibit. of 5-HTP-Head Twitch ED50” value in the experiment on serotonin receptors is listed as 1-10 mg/kg, p.o. The IC50 worked out at 210 nM on 5HT1A receptor (3H-8-OH DPAT) and 12.5 nM at 5HT2 [4].

In the case of `O=c1[nH]c2cscc2c(=O)n1CCCCCN1CCC(=C(c2ccc(F)cc2)c2ccc(F)cc2)CC1` [Example 20, 3-[5-[4-[Bis(4-fluorophenyl)methylene]piperidin-1-yl]pentyl]thieno[3,4-d]pyrimidine-2,4-dione], the IC50 came to 300 nM in experiment [1], 270 nM on 5HT1A receptor (3H-8-OH DPAT) and 650 nM on 5HT2 [4]. Further, the IC (10-fold shift) in experiment [3] is 0.085 µM.

With `Cn1c(=O)n(CCN2CCC(=C(c3ccc(F)cc3)c3ccc(F)cc3)CC2)c(=O)c2cscc21` [Example 23], the IC50 in experiment [1] was 17000 nM; at 5HT1A receptor (3H-8-OH DPAT), 3000 nM; on 5HT2 [4], 1.8 nM. On 5HT2 [2], the ED50 was over 0.3 mg/kg. The IC (10-fold shift) in experiment [3] was determined as 0.066 µM.

As to `O=c1[nH]c2cscc2c(=O)n1CCN1CC=C(c2ccccc2)CC1` [Example 24, 3-[2-[4-Phenyl-1,2,3,6-tetrahydropyridin-1-yl]ethyl]thieno[3,4-dy]pyrimidine-2,4-dione], the “Inhibit. of 5-HTP-Head Twitch (result in words)” value in the experiment with serotonin receptors was “Inact”. On 5HT1A receptor, the inhibition at 1 µM was 53%. On 5HT2 [4], this compound had an IC50 of 29 nM.
